Measured values from PMC12466757, “1,5-Diarylidene-4-Piperidones as Promising Antifungal Candidates Against Cryptococcus neoformans” (Antibiotics, 2025).
≈ marks a conversion by molar mass, not a printed value.

What was measured:
[1] = tested on: various human cells, i.e., A498, BEAS-2B, Caco-2, HaCaT, and HepG2
[2] = tested on: Cryptococcus neoformans (DSM11959); assay: MIC assay against C. neoformans; assay type: cell-based; conditions: 35 °C, 24–48 h
in vitro = conditions: human, Caco-2
[3] = Cytotoxicity, resazurin cell viability assay, Caco-2; conditions: human
[4] = Cytotoxicity, resazurin cell viability assay, HaCaT; conditions: human
[5] = Cytotoxicity, resazurin cell viability assay, A498; conditions: human
[6] = Cytotoxicity, resazurin cell viability assay, HepG2; conditions: human
[7] = Cytotoxicity, resazurin cell viability assay, BEAS-2B; conditions: human
[8] = tested on: Trichophyton rubrum (DSM16111); assay: MIC assay, filamentous fungus T. rubrum; assay type: cell-based; conditions: DSM16111, human pathogen, 35 °C, 24–48 h
[9] = tested on: Candida auris (DSM 21092); assay: MIC assay, pathogenic yeast C. auris; assay type: cell-based; conditions: Candidozyma auris, DSM21092, 35 °C, 24–48 h
[10] = tested on: Candida tropicalis (DSM 9419); assay: MIC assay, pathogenic yeast C. tropicalis; assay type: cell-based; conditions: DSM9419, 35 °C, 24–48 h
[11] = tested on: Microdochium bolleyi (DSM 62073); assay: MIC assay, filamentous fungus M. bolleyi; assay type: cell-based; conditions: DSM62073, DSM 62073, plant pathogen, 25 °C, 48–72 h
A. fumigatus (DSM 819) = assay: MIC assay, filamentous fungus A. fumigatus; assay type: cell-based; conditions: Aspergillus fumigatus, DSM819; DSM 819, human pathogen; 35 °C, 24–48 h
[12] = tested on: Aspergillus flavus (DSM 1959); assay: MIC assay, filamentous fungus A. flavus; assay type: cell-based; conditions: DSM1959, DSM 1959, plant pathogen, 25 °C, 48–72 h
[13] = tested on: Candida albicans (DSM 10697); assay: MIC assay, pathogenic yeast C. albicans; assay type: cell-based; conditions: DSM10697, 35 °C, 24–48 h
[14] = tested on: Candida glabrata (DSM 11226); assay: MIC assay, pathogenic yeast C. glabrata; assay type: cell-based; conditions: Nakaseomyces glabratus, DSM11226, 35 °C, 24–48 h
Magnaporthe oryzae = assay: microbe, parasite or virus in culture; assay type: cell-based; conditions: Pyricularia oryzae, read-out: MIC M. oryzae
[15] = tested on: Fusarium graminearum (DSM 1095); assay: microbe, parasite or virus in culture; assay type: cell-based; conditions: DSM1095, read-out: MIC F. graminearum
[16] = tested on: Colletotrichum graminicola (DSM 63127); assay: MIC assay, filamentous fungus C. graminicola; assay type: cell-based; conditions: DSM63127, DSM 63127, plant pathogen, 25 °C, 48–72 h
[17] = tested on: Penicillium verrucosum (DSM 12639); assay: MIC assay, filamentous fungus P. verrucosum; assay type: cell-based; conditions: DSM12639, DSM 12639, plant pathogen, 25 °C, 48–72 h
[18] = tested on: Enterobacter cloacae (DSM 30054); assay: Antibacterial liquid MIC determination, E. cloacae; assay type: cell-based; conditions: DSM30054, Gram-negative
[19] = tested on: Acinetobacter baumannii (DSM 30007); assay: Antibacterial liquid MIC determination, A. baumannii; assay type: cell-based; conditions: DSM30007, Gram-negative
[20] = tested on: Staphylococcus aureus (ATCC 6538); assay: Antibacterial liquid MIC determination, S. aureus; assay type: cell-based; conditions: ATCC6538, Gram-positive
[21] = Cryptococcus neoformans, DSM11959, C. neoformans DSM 11959, lowest concentration totally inhibiting growth
[22] = C. neoformans DSM 11959, lowest concentration totally inhibiting growth

SMILES: CCN1C/C(=C\c2ccc(OC)cc2)C(=O)/C(=C/c2ccc(OC)cc2)C1 [1a, 1-ethyl-3,5-bis((E)-4-methoxybenzylidene)piperidin-4-one]
- CC50 (range depending on the cell model) [1]: 64.9 to >1000
- MIC [2, 21]: 125 µM (≈ 45.4 µg/mL)
- CC50 at 48 h (in vitro): 314 µM

SMILES: CCN1C/C(=C\c2ccc(C)cc2)C(=O)/C(=C/c2ccc(C)cc2)C1 [1b, 1-ethyl-3,5-bis((E)-4-methylbenzylidene)piperidin-4-one]
- MIC [2, 21]: 250 µM (≈ 82.9 µg/mL)
- CC50 at 48 h (in vitro): 86.2 µM

SMILES: CCN1C/C(=C\c2ccc(C#N)cc2)C(=O)/C(=C/c2ccc(C#N)cc2)C1 [1c]
- MIC [2, 21]: 250 µM (≈ 88.4 µg/mL)
- CC50 at 48 h (in vitro): 70.3 µM

SMILES: CCN1C/C(=C\c2ccc([N+](=O)[O-])cc2)C(=O)/C(=C/c2ccc([N+](=O)[O-])cc2)C1 [1d]
- CC50 at 48 h [3]: 95.4 µM
- CC50 at 48 h [4]: 163 µM
- CC50 at 48 h [5]: 486 µM
- CC50 at 48 h [6]: 314 µM
- CC50 at 48 h [7]: 364 µM
- MIC [2, 21]: 250 µM (≈ 98.3 µg/mL)

SMILES: CCN1C/C(=C\c2ccc(Cl)cc2)C(=O)/C(=C/c2ccc(Cl)cc2)C1 [1e]
- MIC [2, 21]: 250 µM (≈ 93.1 µg/mL)
- CC50 at 48 h (in vitro): 98.6 µM

SMILES: CCN1C/C(=C\c2ccc(C(F)(F)F)cc2)C(=O)/C(=C/c2ccc(C(F)(F)F)cc2)C1 [1f]
- MIC [2, 21]: 250 µM (≈ 110 µg/mL)
- CC50 at 48 h (in vitro): 47 µM

SMILES: CCN1C/C(=C\c2ccc(OC)cc2OC)C(=O)/C(=C/c2ccc(OC)cc2OC)C1 [2a, 3,5-bis((E)-2,4-dimethoxybenzylidene)-1-ethylpiperidin-4-one]
- MIC [2, 22]: >250 µM
- MIC [2, 21]: > 250 µM

SMILES: C=CCOc1ccc(/C=C2\CN(CC)C/C(=C\c3ccc(OCC=C)cc3OCC=C)C2=O)c(OCC=C)c1 [2g]
- MIC [2, 22]: >250 µM
- MIC [2, 21]: > 250 µM

SMILES: CCCCOc1ccc(/C=C2\CN(CC)C/C(=C\c3ccc(OCCCC)cc3OCCCC)C2=O)c(OCCCC)c1 [2h, 3,5-bis((E)-2,4-dibutoxybenzylidene) -1-ethylpiperidin-4-one]
- MIC [8]: 62.5 µM (≈ 37 µg/mL)
- MIC [9]: 31.2 µM (≈ 18.5 µg/mL)
- MIC [10]: 250 µM (≈ 148 µg/mL)
- MIC [11]: 62.5 µM (≈ 37 µg/mL)
- MIC (A. fumigatus (DSM 819)): 125 µM (≈ 74 µg/mL)
- MIC [12]: > 250 µM
- MIC [13]: 250 µM (≈ 148 µg/mL)
- MIC [2, 21]: 31.2 µM (≈ 18.5 µg/mL)
- MIC [14]: 31.2 µM (≈ 18.5 µg/mL)
- MIC (Magnaporthe oryzae): 15.6 µM (≈ 9.23 µg/mL)
- MIC [15]: > 250 µM
- MIC [16]: > 250 µM
- MIC [17]: 125 µM (≈ 74 µg/mL)
- CC50 at 48 h (in vitro): 697 µM

SMILES: CCN1C/C(=C\c2ccc3c(c2)OCO3)C(=O)/C(=C/c2ccc3c(c2)OCO3)C1 [2i]
- MIC [2, 21]: 250 µM (≈ 97.9 µg/mL)
- CC50 at 48 h (in vitro): 152 µM

SMILES: CCN1C/C(=C\c2ccccc2F)C(=O)/C(=C/c2ccccc2F)C1 [2j]
- MIC [2, 21]: 250 µM (≈ 84.8 µg/mL)
- CC50 at 48 h (in vitro): 68.3 µM

SMILES: CCN1C/C(=C\c2ccc[nH]2)C(=O)/C(=C/c2ccc[nH]2)C1 [2k]
- MIC [18]: 250 µM (≈ 70.3 µg/mL)
- MIC [19]: 250 µM (≈ 70.3 µg/mL)
- MIC [2, 21]: 250 µM (≈ 70.3 µg/mL)

SMILES: CCN1C/C(=C\c2cnc3ccccc3c2)C(=O)/C(=C/c2cnc3ccccc3c2)C1 [2l]
- MIC [2, 21]: 250 µM (≈ 101 µg/mL)
- MIC [20]: 250 µM (≈ 101 µg/mL)
- CC50 at 48 h (in vitro): 30 µM

SMILES: CCCCOc1ccc(/C=C2\CN(CC)C/C(=C\c3ccc(OCCCC)c(OCCCC)c3OCCCC)C2=O)c(OCCCC)c1OCCCC [2m]
- MIC [8]: 31.2 µM (≈ 23 µg/mL)
- MIC [9]: 31.2 µM (≈ 23 µg/mL)
- MIC [10]: 250 µM (≈ 184 µg/mL)
- MIC [11]: > 250 µM
- MIC (A. fumigatus (DSM 819)): 250 µM (≈ 184 µg/mL)
- MIC [12]: > 250 µM
- MIC [13]: 125 µM (≈ 92 µg/mL)
- MIC ([2]; Cryptococcus neoformans, DSM11959, C. neoformans DSM 11959, […]): 62.5 µM (≈ 46 µg/mL)
- MIC [14]: 15.6 µM (≈ 11.5 µg/mL)
- MIC (Magnaporthe oryzae): 62.5 µM (≈ 46 µg/mL)
- MIC [15]: > 250 µM
- MIC [16]: > 250 µM
- MIC [17]: > 250 µM
- CC50 at 48 h (in vitro): 687 µM
